The subject of the test is MIN6 cell masses (spheroids). The experiment in a line: Fluorescent imaging of tumor cell masses (spheroids) of MIN6 cells with mixed fluorescent glucose derivative solutions. Type of test: cell-based, mouse. As to conditions: 3 minutes, 6 minutes after start of washout. On the procedure:
A fluorescent mixed solution containing 100 μM CDG, 100 μM 2-NBDLG, and 20 μM 2-TRLG (CDG/2-NBDLG/2-TRLG) was administered at 37° C. for 3 minutes to MIN6 cell masses (spheroids) at culture day 17, and fluorescent imaging was conducted.
10 μL of a culture solution containing MIN6 cells suspended at a density of 6×10^4 cells/mL was added dropwise onto each glass cover slip, and then, the glass cover slip was left standing for 40 minutes in an incubator for fixation to the glass surface. The cells were cultured by the addition of 3 mL of a culture solution (600 cells/slip). Spheroids were formed by continuing the culture for 15 to 17 days. Half the amount of the culture solution was replaced with a fresh one once every three days.
The MIN6 cells used were cells kindly provided by professor Junichi Miyazaki (Osaka University) and subcultured 6 to 10 times. Half the amount of the culture solution was replaced with a fresh one once every two days.
13.4 g of high glucose-containing Dulbecco's modified Eagle's Medium (DMEM-HG) (Sigma-Aldrich, #D5648), 3.4 g of NaHCO3, and 5 μL of 2-mercaptoethanol were dissolved in 1 L of ultrapure water, and the pH of the solution was adjusted to 7.30 to 7.35 in a CO2 incubator of 37° C. The culture solution was supplemented with fetal bovine serum (Hyclone, Cat# SH30070.03) at a final concentration of 10% and penicillin-streptomycin at a final concentration of 0.5%.
The whole amount of the 0.5 mg CDG vial was recovered using 0.73 mL in total of 10% DMSO and dissolved by addition to 7.0 ml of a KRB solution for image acquisition according to the method described in Non Patent Literature 2.
The whole amount of one 0.5 mg 2-NBDLG vial was dissolved in 7.3 mL of a KRB solution for image acquisition.
The CDG solution and the 2-NBDLG solution were mixed at a ratio of 1:1. The whole amount of the 0.2 mg 2-TRLG vial was recovered using 130 μL in total of DMSO and mixed with 13 ml of the CDG+2-NBDLG mixed solution according to the method described in Non Patent Literature 2 (final concentration: 100 μM CDG+100 μM 2-NBDLG+20 μM 2-TRLG mixed solution). […]
The glass cover slip with the cultured MIN6 cells was transferred into the KRB solution for image acquisition in a perfusion chamber loaded on a stage of a fluorescence microscope, followed by measurement. […]
The KRB solution for image acquisition was warmed in advance in an aluminum syringe heater and supplied to the perfusion chamber through hydrostatic pressure. […] Immediately before being introduced to the perfusion chamber, the solution was rewarmed via an inline heater so that the actually measured temperature of the perfusate in an observation region in the chamber was adjusted to 36±1° C. […]

As to `O=c1ccc2ccc(NC3C(O)OC(CO)[C@@H](O)[C@@H]3O)cc2o1` (stereo partly drawn) [CDG, 2-deoxy-2-(2-oxo-2H-chromen-7-yl)amino-D-glucose], where the note is “100 μM CDG+100 μM 2-NBDLG+20 μM 2-TRLG mixed solution, culture day 17”, the “uptake into cells of MIN6 spheroids, intracellular localization” value is on record as “not only taken into the cytoplasm but unexpectedly taken into the nucleus”.

In the case of `O=c1ccc2ccc(NC3C(O)OC(CO)[C@H](O)[C@H]3O)cc2o1` (stereo partly drawn) [CLG, 2-deoxy-2-(2-oxo-2H-chromen-7-yl)amino-L-glucose], the “uptake into cells of MIN6 spheroids, intracellular localization” value (100 μM CLG+100 μM 2-NBDLG+20 μM 2-TRLG mixed solution, culture day 15) was “strongly taken not only into the cytoplasm but into the nucleus”.

(Values after patent US10509041B2, “Glucose derivative, and cell imaging method and imaging agent using said derivative” (HIROSAKI UNIVERSITY, priority 2014, dated 2019).)
